Experimental data taken from patent US20150044136A1, “Ophthalmological treatment for michobial infections” (priority 2013, published 2015).

Test system: L929 cells
Assay: Cytotoxicity evaluation, agar overlay, ASTM F895-84 / ISO 10993-5
Assay type: cell-based
Design: key to Zone Description Following 48 Hour Incubation (size of zone of lysis): 0: No detectable zone around or under specimen; 1: Zone limited to area under specimen; 2: Zone extends less than 0.5 cm beyond specimen; 3: Zone extends 0.5 to 1.0 cm beyond specimen; 4: Zone extends greater than 1.0 cm beyond specimen but does not involve entire dish; 5: Zone involves entire dish
Conditions: L929 monolayer, replicate wells
Protocol: ASTM F895-84 Test Method was Utilized.
The Sample was analyzed as described in ASTM F895-84 and ISO 10993-5. Monolayers of L929 cells were grown in six 150 mm cell culture plates (Corning, USA). Following 24 hours to cell passage, the plates were over-layed with agar supplemented dMEM/FBS media as described by the ASTM method. One hundred milligrams of the provided samples was added to the center of four of the over-layed wells. One well was left undisturbed as this served as negative control. An additional well was inoculated with a 2 cm^2 piece of latex rubber. The cells were then incubated in 5% carbon dioxide at 36.5° C.±1 for 24 hours. The plates and cells were evaluated macro and microscopically for signs of malformation, degeneration, sloughing, or lysis of the cells within the zone directly beneath and surrounding the discs. Cells were then re-incubated for an additional 24 hours at the conditions described above and evaluated again. The size of the zone surrounding the inoculated area was evaluated for signs of cell growth inhibition and/cell lysis.
Table 3 contains the numerical values describing the size of zone of lysis surrounding the inoculums as per the ASTM standards. Table 4 contains the relative numerical value describing the number of cells affected within the zone of inhibition or toxicity. Each sample observed is assigned a numerical value based on cellular degradation and/or cell death.
Briefly, number 0=unchanged/no evident cytotoxicity; 5=complete monolayer destruction and severe cytotoxicity. The ASTM and ISO 10993-5 consider a scoring of 3 or higher as toxic.

Oc1ccccc1 [(+) Control, Phenol]
Cell Description Following 24 Hour Incubation (condition of cells within the zone of lysis) (24 Hour Incubation): 5 (Greater than 80% of zone affected of zone affected)
Zone Description Following 24 Hour Incubation (size of zone of lysis) (24 Hour Incubation): 4 (Zone extends greater than 1.0 cm beyond specimen but does not involve entire dish)
Cell Description Following 48 Hour Incubation (condition of cells within the zone of lysis) (48 Hour Incubation): 5 (Greater than 80% of zone affected of zone affected)
Zone Description Following 48 Hour Incubation (size of zone of lysis) (48 Hour Incubation): 5
